One assay addresses Myt1-KD (Homo sapiens (Human), UniProt Q99640). Put plainly: Thermal Shift Assay, compound binding to Myt1-KD. The conditions noted are these: 2 μM protein, 100 μM compound, Tm of compound minus Tm of DMSO. As for the experimental part:
The degree of compound binding to Myt1-KD was tested using a Thermal Shift Assay. Each protein was diluted to a concentration of 2 μM in 50 mM Tris (pH 7.5) with 100 μM of the compound. SYPRO™ Orange dye was added to the solution, and the plate was transferred to a QuantStudio3 Real-Time PCR System (Applied Biosystems by Thermo Fisher Scientific). […] The degree of protein melting in the presence of the compound compared to DMSO was calculated according to the following Equation 1. ΔTm=Tm (Temperature of Example compound)−Tm (Temperature of DMSO) [Equation 1]

In another assay the target is human PKMYT1 enzyme (Homo sapiens (Human), UniProt Q99640). In words: Inhibitory activity against PKMYT1 kinase (ADP-Glo kinase assay). Type of assay: biochemical. As to conditions: purified human PKMYT1, ATP, CDK1 substrate, 25° C., 1 hour. As for the experimental part:
To evaluate the inhibitory activity of the compounds synthesized according to the above Examples against PKMYT1 kinase, the Example compounds were reacted with purified human PKMYT1 enzyme and assessed using the following method.
The reaction buffer was used as a composition of 200 mM Tris-HCl pH 7.4, 100 mM MgCl2, 0.5 mg/mL BSA, 0.25 mM DTT, and the reactions of all the tests were carried out on the reaction buffer.
The compound was diluted in 12 steps using a serial dilution method from a 10 mM DMSO stock, and the enzyme activity was measured at a final compound concentration of 10˜0.00005645 μM. During the test, the enzyme activity was confirmed using in vitro ADP-Glo™kinase assay (Promega) after reacting with the proper concentration of PKMYT1 enzyme, purified ATP, and enzyme substrate (CDK1) at 25° C. for 1 hour. At a ratio of 2:2:1, an enzyme-active reaction solution, an ADP-Glo reaction solution, and an enzyme-active detection solution were reacted to measure the inhibition of the enzyme's activity with luminescence. Based on the […] of the enzyme activity of the solvent control that was not treated with the compound, the degree of enzyme activity inhibition was calculated according to the treatment concentration of each compound, and the concentration of each compound that inhibits 50% of enzyme activity was determined as IC50 (nM) value and the value was obtained by using GraphPad Prism 8.3.0 (GraphPad software Inc., San Diego) software.
(In general: ADP-Glo first removes unused ATP, then detects ADP through luciferase.)

As a reminder, the IC50 is the concentration at which inhibition is half-maximal. Read a low IC50 as greater potency in that assay. The term ΔTm denotes the shift of the melting midpoint relative to a reference.

Molecules are shown by their SMILES. Where only a bound is given, the exact number is not on record here.

Sequence of human PKMYT1 enzyme (Q99640 whole entry): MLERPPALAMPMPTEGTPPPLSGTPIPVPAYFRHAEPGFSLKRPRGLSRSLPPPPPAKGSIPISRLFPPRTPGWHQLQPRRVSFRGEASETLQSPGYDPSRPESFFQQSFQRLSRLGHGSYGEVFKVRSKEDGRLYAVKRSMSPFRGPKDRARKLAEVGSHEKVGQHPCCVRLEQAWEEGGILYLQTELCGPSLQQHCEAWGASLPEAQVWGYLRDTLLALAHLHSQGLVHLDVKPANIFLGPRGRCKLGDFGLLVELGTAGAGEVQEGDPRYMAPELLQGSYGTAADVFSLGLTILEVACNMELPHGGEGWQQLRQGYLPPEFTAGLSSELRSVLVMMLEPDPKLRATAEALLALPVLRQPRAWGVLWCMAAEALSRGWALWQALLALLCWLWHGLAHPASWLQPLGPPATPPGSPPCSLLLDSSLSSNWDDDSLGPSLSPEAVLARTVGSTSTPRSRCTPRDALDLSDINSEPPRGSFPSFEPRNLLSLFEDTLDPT
Sequence of Myt1-KD (Q99640 110-359): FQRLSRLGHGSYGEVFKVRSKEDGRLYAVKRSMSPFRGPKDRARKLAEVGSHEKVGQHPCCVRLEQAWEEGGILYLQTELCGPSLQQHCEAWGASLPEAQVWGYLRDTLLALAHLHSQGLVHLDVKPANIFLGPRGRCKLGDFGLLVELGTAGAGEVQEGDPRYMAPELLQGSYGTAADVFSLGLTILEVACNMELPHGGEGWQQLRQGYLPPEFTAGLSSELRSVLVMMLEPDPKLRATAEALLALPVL

For `Cc1ccc(O)c(C)c1-n1c(N)c(C(=O)c2cc3ncccc3[nH]2)c2nccnc21` (atropisomer, axis not shown) [Example 27, (R)-(6-amino-5-(3-hydroxy-2,6-dimethylphenyl)-5H-pyrrolo[2,3-b]pyrazin-7-yl)(1H-pyrrolo[3,2-b]pyridin-2-yl)methanone], the “ΔTm (° C.)” value at Myt1-KD is “B (5 °C ≥ ΔTm (° C.))”. The same measure, in the same setting: next, `Cc1ccc(O)c(C)c1-n1c(N)c(C(=O)c2cc3sccc3[nH]2)c2nc(C)c(C)nc21` [Example 14, (R)-(6-amino-5-(3-hydroxy-2,6-dimethylphenyl)-2,3-dimethyl-5H-pyrrolo[2,3-b]pyrazin-7-yl)(4H-thieno[3,2-b]pyrrol-5-yl)methanone]: “B (5 °C ≥ ΔTm (° C.))”. Take `Cc1ccc(O)c(C)c1-n1c(N)c(C(=O)c2cc3ccncc3[nH]2)c2nccnc21` (atropisomer, axis not shown) [Example 25, (R)-(6-amino-5-(3-hydroxy-2,6-dimethylphenyl)-5H-pyrrolo[2,3-b]pyrazin-7-yl)(1H-pyrrolo[2,3-c]pyridin-2-yl)methanone]: on Myt1-KD, the “ΔTm (° C.)” value is “A (ΔTm (° C.) ≥ 5° C.)”. Also, at human PKMYT1 enzyme, the IC50 was at most 200 nM. `Cc1ccc(O)c(C)c1-n1c(N)c(C(=O)c2cc3ccccc3[nH]2)c2nc(C)c(C)nc21` (atropisomer, axis not shown) [Example 9, (S)-(6-amino-5-(3-hydroxy-2,6-dimethylphenyl)-2,3-dimethyl-5H-pyrrolo[2,3-b]pyrazin-7-yl)(1H-indol-2-yl)methanone]: at Myt1-KD, the ΔTm at 100 µM was at least 5 °C. In addition, the IC50 against human PKMYT1 enzyme lay within 200 to 500 nM. `Cc1ccc(O)c(C)c1-n1c(N)c(C(=O)c2cc3occc3[nH]2)c2nccnc21` (atropisomer, axis not shown) [Example 8, (R)-(6-amino-5-(3-hydroxy-2,6-dimethylphenyl)-5H-pyrrolo[2,3-b]pyrazin-7-yl)(4H-furo[3,2-b]pyrrol-5-yl)methanone]: at Myt1-KD, the “ΔTm (° C.)” value was “B (5 °C ≥ ΔTm (° C.))”.

Turning to `Cc1ccc(O)c(C)c1-n1c(N)c(C(=O)c2cc3ccccc3[nH]2)c2nc(C)c(C)nc21` (atropisomer, axis not shown) [Example 10, (R)-(6-amino-5-(3-hydroxy-2,6-dimethylphenyl)-2,3-dimethyl-5H-pyrrolo[2,3-b]pyrazin-7-yl)(1H-indol-2-yl)methanone], the “ΔTm (° C.)” value on Myt1-KD is “B (5 °C ≥ ΔTm (° C.))”. On to `Cc1cc2c(C(=O)c3nc4ccccc4[nH]3)c(N)n(-c3c(C)ccc(O)c3C)c2nc1C` (atropisomer, axis not shown) [Example 11, (S)-(2-amino-1-(3-hydroxy-2,6-dimethylphenyl)-5,6-dimethyl-1H-pyrrolo[2,3-b]pyridin-3-yl)(1H-benzo[d]imidazol-2-yl)methanone], for which, at Myt1-KD, the ΔTm at 100 µM was at least 5 °C. Take `Cc1ccc(O)c(C)c1-n1c(N)c(C(=O)c2cc3sccc3[nH]2)c2nc(C)c(C)nc21` [Example 13, (S)-(6-amino-5-(3-hydroxy-2,6-dimethylphenyl)-2,3-dimethyl-5H-pyrrolo[2,3-b]pyrazin-7-yl)(4H-thieno[3,2-b]pyrrol-5-yl)methanone]: on Myt1-KD, the “ΔTm (° C.)” value was “A (ΔTm (° C.) ≥ 5° C.)”. The IC50 against human PKMYT1 enzyme is at most 200 nM.

Consider `Cc1ccc(O)c(C)c1-n1c(N)c(C(=O)c2ccc[nH]2)c2nccnc21` [Example 23, (6-amino-5-(3-hydroxy-2,6-dimethylphenyl)-5H-pyrrolo[2,3-b]pyrazin-7-yl)(1H-pyrrol-2-yl)methanone], for which the ΔTm at 100 µM on Myt1-KD is at most 5 °C. On human PKMYT1 enzyme, this compound came in with an IC50 of at most 200 nM. `Cc1ccc(O)c(C)c1-n1c(N)c(C(=O)c2cc3cc(CN4CCOCC4)ccc3[nH]2)c2nccnc21` (atropisomer, axis not shown) [Example 20, (R)-(6-amino-5-(3-hydroxy-2,6-dimethylphenyl)-5H-pyrrolo[2,3-b]pyrazin-7-yl)(5-(morpholinomethyl)-1H-indol-2-yl)methanone]: the “ΔTm (° C.)” value at Myt1-KD is “B (5 °C ≥ ΔTm (° C.))”.

Take `Cc1ccc(O)c(C)c1-n1c(N)c(C(=O)c2cc3cnc(N4CCOCC4)cc3[nH]2)c2nc(C)c(C)nc21` (atropisomer, axis not shown) [Example 16, (R)-(6-amino-5-(3-hydroxy-2,6-dimethylphenyl)-2,3-dimethyl-5H-pyrrolo[2,3-b]pyrazin-7-yl)(6-morpholino-1H-pyrrolo[3,2-c]pyridin-2-yl)methanone]: the “ΔTm (° C.)” value at Myt1-KD is “B (5 °C ≥ ΔTm (° C.))”. Turning to `Cc1ccc(O)c(C)c1-n1c(N)c(C(=O)c2cc3cc(CN4CCOCC4)ccc3[nH]2)c2nccnc21` (atropisomer, axis not shown) [Example 19, (S)-(6-amino-5-(3-hydroxy-2,6-dimethylphenyl)-5H-pyrrolo[2,3-b]pyrazin-7-yl)(5-(morpholinomethyl)-1H-indol-2-yl)methanone], the ΔTm at 100 µM at Myt1-KD is at least 5 °C. Moreover, at human PKMYT1 enzyme, the IC50 was at most 200 nM. For `Cc1ccc(O)c(C)c1-n1c(N)c(C(=O)c2cc3sccc3[nH]2)c2nccnc21` (atropisomer, axis not shown) [Example 5, (S)-(6-amino-5-(3-hydroxy-2,6-dimethylphenyl)-5H-pyrrolo[2,3-b]pyrazin-7-yl)(4H-thieno[3,2-b]pyrrol-5-yl)methanone] the same measures were at least 5 °C and at most 200 nM. Take `Cc1ccc(O)c(C)c1-n1c(N)c(C(=O)c2cc3occc3[nH]2)c2nc(C)c(C)nc21` (atropisomer, axis not shown) [Example 17, (S)-(6-amino-5-(3-hydroxy-2,6-dimethylphenyl)-2,3-dimethyl-5H-pyrrolo[2,3-b]pyrazin-7-yl)(4H-furo[3,2-b]pyrrol-5-yl)methanone]: the ΔTm at 100 µM at Myt1-KD was at most 5 °C. On the same count and under the same terms, next, `Cc1ccc(O)c(C)c1-n1c(N)c(C(=O)c2cc3cc(P(C)(C)=O)ccc3[nH]2)c2nccnc21` [Example 40, (6-amino-5-(3-hydroxy-2,6-dimethylphenyl)-5H-pyrrolo[2,3-b]pyrazin-7-yl)(5-(dimethylphosphoryl)-1H-indol-2-yl)methanone]: at least 5 °C. In the case of `Cc1cc2c(C(=O)c3nc4ccccc4[nH]3)c(N)n(-c3c(C)ccc(O)c3C)c2nc1C` (atropisomer, axis not shown) [Example 12, (R)-(2-amino-1-(3-hydroxy-2,6-dimethylphenyl)-5,6-dimethyl-1H-pyrrolo[2,3-b]pyridin-3-yl)(1H-benzo[d]imidazol-2-yl)methanone], the “ΔTm (° C.)” value on Myt1-KD is “B (5 °C ≥ ΔTm (° C.))”. With `Cc1ccc(O)c(C)c1-n1c(N)c(C(=O)c2cc3ccccc3[nH]2)c2nccnc21` (atropisomer, axis not shown) [Example 2, (R)-(6-amino-5-(3-hydroxy-2,6-dimethylphenyl)-5H-pyrrolo[2,3-b]pyrazin-7-yl)(1H-indol-2-yl)methanone], the ΔTm at 100 µM at Myt1-KD is at most 5 °C. In the case of `Cc1ccc(O)c(C)c1-n1c(N)c(C(=O)c2cc3sccc3[nH]2)c2nccnc21` (atropisomer, axis not shown) [Example 6, (R)-(6-amino-5-(3-hydroxy-2,6-dimethylphenyl)-5H-pyrrolo[2,3-b]pyrazin-7-yl)(4H-thieno[3,2-b]pyrrol-5-yl)methanone], at Myt1-KD, the “ΔTm (° C.)” value was “B (5 °C ≥ ΔTm (° C.))”. As for `Cc1ccc(O)c(C)c1-n1c(N)c(C(=O)c2cc3ncccc3[nH]2)c2nccnc21` (atropisomer, axis not shown) [Example 26, (S)-(6-amino-5-(3-hydroxy-2,6-dimethylphenyl)-5H-pyrrolo[2,3-b]pyrazin-7-yl)(1H-pyrrolo[3,2-b]pyridin-2-yl)methanone], the ΔTm at 100 µM at Myt1-KD was at least 5 °C. Still for that read-out and setting: next, `Cc1ccc(O)c(C)c1-n1c(N)c(C(=O)c2nc3ccccc3[nH]2)c2cccnc21` (atropisomer, axis not shown) [Example 4, (R)-(2-amino-1-(3-hydroxy-2,6-dimethylphenyl)-1H-pyrrolo[2,3-b]pyridin-3-yl)(1H-benzo[d]imidazol-2-yl)methanone]: at most 5 °C; `Cc1ccc(O)c(C)c1-n1c(N)c(C(=O)c2cc3ccncc3[nH]2)c2nccnc21` (atropisomer, axis not shown) [Example 24, (S)-(6-amino-5-(3-hydroxy-2,6-dimethylphenyl)-5H-pyrrolo[2,3-b]pyrazin-7-yl)(1H-pyrrolo[2,3-c]pyridin-2-yl)methanone]: at most 5 °C. Still for that read-out and setting: next, `Cc1ccc(O)c(C)c1-n1c(N)c(C(=O)c2cc3cc(N4CCN(C)CC4)ccc3[nH]2)c2nccnc21` (atropisomer, axis not shown) [Example 21, (S)-(6-amino-5-(3-hydroxy-2,6-dimethylphenyl)-5H-pyrrolo[2,3-b]pyrazin-7-yl)(5-(4-methylpiperazin-1-yl)-1H-indol-2-yl)methanone]: at most 5 °C.

For the origin of these results see US20250092052A1, “HETEROARYL DERIVATIVE COMPOUNDS, AND USES THEREOF” (VORONOI INC., priority 2023, published 2025).
